Key:
c-Met [1] = target: T1, c-Met (Homo sapiens, UniProt P08581); assay: c-Met phosphorylation in MDA-MB-231 cells, basal and HGF-induced (Western blot); assay type: cell-based; set-up: Whole cell extracts were prepared in lysis buffer; endogenous in cells; host or cells: MDA-MB-231; conditions: serum-deprived 16 hours, 100 ng/ml HGF/SF for 10 minutes
Procedure: MDA-MB-231 cells were serum-deprived overnight (16 hours) in the absence or in the presence of the indicated concentrations of the separate enantiomers (+)-trans-3-(5,6-dihydro-4H-pyrrolo[3,2,1-ij]quinolin-1-yl)-4-(1H-indol-3-yl)pyrrolidine-2,5-dione and (−)-trans-3-(5,6-dihydro-4H-pyrrolo[3,2,1-ij]quinolin-1-yl)-4-(1H-indol-3-yl)pyrrolidine-2,5-dione. Cells were treated with 100 ng/ml recombinant human Hepatocyte Growth Factor/Scatter Factor (HGF/SF) (R&D Systems #294-HG) for 10 minutes. Whole cell extracts were prepared in lysis buffer (20 mM Tris-HCl pH 7.5, 150 mM NaCl, 1 mM Na2EDTA, 1 mM EGTA, 1% Triton X-100, 2.5 mM sodium pyrophosphate, 1 mM beta-glycerophosphate, 1 mM Na3VO4, 1 μg/ml leupeptin, 1 mM phenylmethylsulfonyl fluoride) and sonicated. Protein concentration was measured by Bradford assay using the BioRad reagent (BioRad, Hercules, Calif.), according to the manufacturer's directions. Samples ([…] of protein) were resolved by 8% SDS-PAGE under reducing conditions and transferred onto a PVDF membrane (BioRad). […] Proteins were detected by incubation overnight at 4° C. in TBS-T with 5% milk and either a polyclonal antibody against phosphorylated c-Met (#3121) or a monoclonal antibody against β-actin (A-5441) (Sigma), which was used as a control for total protein loading. […]

[2] = tested on: human pancreatic cancer MIA PaCa2; assay: Human pancreatic cancer xenograft; assay type: in vivo; conditions: monotherapy
Procedure: (§1) The efficacy of (−)-trans-3-(5,6-dihydro-4H-pyrrolo[3,2,1-ij]quinolin-1-yl)-4-(1H-indol-3-yl)pyrrolidine-2,5-dione was also tested in xenograft models with several other cancer cell lines: human pancreatic cancer MIA PaCa2 (FIG. 9, Panel B), human prostate cancer PC3 (FIG. 9, Panel C) and human gastric cancer MKN45 (FIG. 9, Panel D). The cells were treated with (−)-trans-3-(5,6-dihydro-4H-pyrrolo[3,2,1-ij]quinolin-1-yl)-4-(1H-indol-3-yl)pyrrolidine-2,5-dione as a monotherapy at indicated concentrations.

c-Met [3] = target: T1, c-Met; assay: c-Met in tumor biopsies from treated patients; assay type: in vivo; set-up: the c-Met protein in tumor biopsies from patients; from tissue; host or cells: tumour biopsies from treated patients; conditions: patients treated with the drug
[4] = tested on: clear cell sarcoma and MiT-associated tumors; assay: Clinical study in patients with clear cell sarcoma and MiT-associated tumors; assay type: in vivo, human
Description: The present example describes the inhibition of c-Met Receptor Tyrosine Kinase in Clear Cell Sarcoma and MiT (Microphthalmia Transcription Factor)-Associated Tumors. […] The studies described in the present example used (−)-trans-3-(5,6-dihydro-4H-pyrrolo[3,2,1-ij]quinolin-1-yl)-4-(1H-indol-3-yl)pyrrolidine-2,5,-dione, a small molecule inhibitor of the c-Met receptor tyrosine kinase.
(−)-trans-3-(5,6-dihydro-4H-pyrrolo[3,2,1-ij]quinolin-1-yl)-4-(1H-indol-3-yl)pyrrolidine-2,5,-dione was administered to a patient with clear cell sarcoma. […]
(−)-trans-3-(5,6-dihydro-4H-pyrrolo[3,2,1-ij]quinolin-1-yl)-4-(1H-indol-3-yl)pyrrolidine-2,5,-dione is administered to patients with MiT (Microphthalmia Transcription Factor)-associated tumors. MiT tumors, which can include clear cell sarcoma (CCS), alveolar soft part sarcoma (ASPS) and translocation-associated renal cell carcinoma (RCC), are linked biologically through a common chromosomal abnormality that is responsible for the overexpression of c-Met resulting in the development of these tumors. Tumors with this abnormality are resistant to current therapies and, in the absence of successful surgical resection, are invariably fatal.

[5] = tested on: A549 human lung cancer cells; assay: Annexin V / propidium iodide apoptosis staining; assay type: cell-based; set-up: dose or concentration left out as unconfirmed
Procedure: A549 human lung cancer cells in a 96-well plate (Costar 3603, 5,000/well) were treated with either A) DMSO as a control; B) […] (−)-trans-3-(5,6-dihydro-4H-pyrrolo[3,2,1-ij]quinolin-1-yl)-4-(1H-indol-3-yl)pyrrolidine-2,5-dione for 38 hours before addition of 1:200 fluorescent Annexin V (green) and 1:500 Propidium iodide (magenta, final concentration of […]). The labeling procedure was allowed to process at 37° C. for 20 minutes followed by image acquisition and analysis using an IC100 Image Cytometer (Beckman Coulter, Inc) with 10× amplification. To determine whether (−)-trans-3-(5,6-dihydro-4H-pyrrolo[3,2,1-ij]quinolin-1-yl)-4-(1H-indol-3-yl)pyrrolidine-2,5-dione works primarily through a cytostatic or apoptotic mechanism, cancer cells exposed to (−)-trans-3-(5,6-dihydro-4H-pyrrolo[3,2,1-ij]quinolin-1-yl)-4-(1H-indol-3-yl)pyrrolidine-2,5-dione were stained with fluorescently labeled Annexin V (green fluorescence) and propidium iodide (bright magenta fluorescence). Annexin V is a well-validated reagent that specifically binds with high affinity to externalized membrane phosphatidylserine, an early marker of the onset of apoptosis, while propidium iodide is a marker for dead cells. […] (See, FIG. 6)

CAMKIIδ = CAMKIIδ (Homo sapiens, UniProt Q13557); assay: Kinase panel inhibition, CAMKIIδ; assay type: biochemical
Procedure: (§2) (−)-trans-3-(5,6-dihydro-4H-pyrrolo[3,2,1-ij]quinolin-1-yl)-4-(1H-indol-3-yl)pyrrolidine-2,5-dione was assessed for its activity to inhibit a large panel (n=230) of human kinases.

[6] = tested on: panel (n=230) of human kinases; assay: Large panel (n=230) of human kinases; assay type: biochemical; conditions: n=230 human kinases
Procedure: as §2

[7] = tested on: human prostate cancer PC3; assay: Human prostate cancer xenograft; assay type: in vivo; conditions: monotherapy
Procedure: as §1

T1 sequence (P08581 25-1390): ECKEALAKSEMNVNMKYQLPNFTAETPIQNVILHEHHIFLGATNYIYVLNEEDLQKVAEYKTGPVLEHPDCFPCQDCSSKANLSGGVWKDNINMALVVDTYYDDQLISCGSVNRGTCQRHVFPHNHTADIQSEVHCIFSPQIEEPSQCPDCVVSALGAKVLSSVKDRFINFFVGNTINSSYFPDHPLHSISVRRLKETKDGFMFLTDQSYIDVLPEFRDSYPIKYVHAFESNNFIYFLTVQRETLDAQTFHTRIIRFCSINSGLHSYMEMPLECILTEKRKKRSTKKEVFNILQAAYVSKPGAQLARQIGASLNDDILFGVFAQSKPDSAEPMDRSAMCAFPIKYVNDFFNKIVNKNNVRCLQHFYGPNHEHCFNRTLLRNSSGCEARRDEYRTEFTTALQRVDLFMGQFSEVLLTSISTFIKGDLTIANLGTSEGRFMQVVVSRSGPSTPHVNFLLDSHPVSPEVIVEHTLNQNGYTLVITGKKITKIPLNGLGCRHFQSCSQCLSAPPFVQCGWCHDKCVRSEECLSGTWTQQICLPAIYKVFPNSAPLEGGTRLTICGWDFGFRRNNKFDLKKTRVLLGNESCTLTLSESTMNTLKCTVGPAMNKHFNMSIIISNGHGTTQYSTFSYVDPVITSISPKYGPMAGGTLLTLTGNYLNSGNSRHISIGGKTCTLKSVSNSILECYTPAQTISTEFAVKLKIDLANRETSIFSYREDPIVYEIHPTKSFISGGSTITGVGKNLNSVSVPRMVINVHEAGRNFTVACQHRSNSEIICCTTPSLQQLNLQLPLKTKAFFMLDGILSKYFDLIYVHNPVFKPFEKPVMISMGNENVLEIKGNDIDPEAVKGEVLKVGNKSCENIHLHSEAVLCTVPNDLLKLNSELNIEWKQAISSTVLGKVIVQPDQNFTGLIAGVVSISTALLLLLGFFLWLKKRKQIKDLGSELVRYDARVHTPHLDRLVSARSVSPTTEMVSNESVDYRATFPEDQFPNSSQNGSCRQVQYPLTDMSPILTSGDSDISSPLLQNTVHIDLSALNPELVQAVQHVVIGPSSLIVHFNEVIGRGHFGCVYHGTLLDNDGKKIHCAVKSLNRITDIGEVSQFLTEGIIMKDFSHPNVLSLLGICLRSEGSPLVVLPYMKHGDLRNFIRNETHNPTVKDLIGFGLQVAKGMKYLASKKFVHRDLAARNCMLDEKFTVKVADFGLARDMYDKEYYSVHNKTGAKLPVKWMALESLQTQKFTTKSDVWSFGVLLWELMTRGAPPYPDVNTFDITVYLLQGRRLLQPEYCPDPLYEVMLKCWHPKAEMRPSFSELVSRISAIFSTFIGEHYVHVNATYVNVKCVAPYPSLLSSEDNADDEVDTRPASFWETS

## O=C1NC(=O)[C@@H](c2cn3c4c(cccc24)CCC3)[C@@H]1c1c[nH]c2ccccc12 (single isomer, unassigned) [(−)-trans-3-(5,6-dihydro-4H-pyrrolo[3,2,1-ij]quinolin-1-yl)-4-(1H-indol-3-yl)pyrrolidine-2,5-dione]
c-Met [1]
  concentration that inhibits both basal and HGF-induced autophosphorylation of c-Met: at least 30 nM
[2]
  tumor growth: significantly inhibited tumor growth
c-Met [3]
  inhibition of c-Met protein in tumor biopsies: ability to inhibit the c-Met protein in tumor biopsies
[4]; 120 mg b.i.d., 23 patients enrolled, fourteen evaluable for efficacy
  patients with stable disease: ten of the evaluable patients have demonstrated stable disease
[4]; a patient with clear cell sarcoma
  response as defined by RECIST: partial response
[5]
  apoptosis (Annexin V staining): induced cells to undergo apoptosis
  cells co-stained with both Annexin V and propidium iodide (dead cells): 10-20%
CAMKIIδ
  IC50: ~10 µM
[6]
  kinase selectivity in panel: inhibited only c-Met to a significant degree
[7]
  tumor growth: significantly inhibited tumor growth

Source: patent publication US8871933B2, “Purified pyrroloquinolinyl-pyrrolidine-2,5-dione compositions and methods for preparing and using same” (ArQule, Inc., priority 2009, dated 2014)
